In US20220002288A1, “MONOBACTAM COMPOUNDS AND USE THEREFOR” (priority 2018, published 2022):
Converted amounts (≈) assume the structure as drawn. Counter-ions that a name gives are not always drawn. Like-named read-outs stand apart in the source and are kept apart here.

Experiments:
[1] = system: Acinetobacter baumannii; assay: In vitro antibacterial activity, minimum inhibitory concentration (MIC); assay type: cell-based
Method: (§1) Compounds: The compounds prepared in the above examples and comparative examples. All test compounds were dissolved and diluted with DMSO, and the final concentrations were prepared as 64, 32, 16, 8, 4, 2, 1, 0.5, 0.25, 0.125, 0.0625 μg/mL in the experiment.
(§2) Bacterial strains: 6 strains of Acinetobacter baumannii (codenames: HDBAB-YK4, HDBAB-YK7, HDBAB-YK12, HDBAB-YK16, HDBAB_OXA_7, ATCC 19606), 2 strains of Pseudomonas aeruginosa (codenames: HDBPA-YK9, HDBPA)-YK15), 1 strain of Escherichia coli (codename: CLB30048), all provided by HD Biosciences (Shanghai) Co., Ltd.
(§3) Medium: Trypticase soy agar (TSA) (BD BBL 211043), and Cation-adjusted Mueller Hinton broth (CAMHB) (BD BBL212322).
(§4) The bacteria used for the minimum inhibitory concentration (MIC) test were stored frozen at −80° C., and needed 2 days to recover before use. A small amount of frozen bacteria was scraped with a sterile inoculation loop for streak inoculation on a TSA solid medium petri dish. The dish was placed in an ordinary incubator at 35±2° C. for 20-24 hours. 5-10 Colonies with similar morphologies were picked from the above-mentioned petri dish with a sterile inoculating loop for streak inoculation again on a TSA solid medium petri dish. The dish was then placed in an ordinary incubator at 35±2° C. for 20-24 hours.
(§5) 1.02×CAMHB liquid medium was taken out from a 4° C. refrigerator and placed at room temperature for preheating. 5-10 Individual bacterial colonies were picked from the solid petri dish of the above Section 2.1 and re-suspended in 500 μL of 0.9% NaCl, and then the OD600 was adjusted to 0.1-0.15 with a spectrophotometer. Then the bacteria were diluted 400 times with 1.02×CAMHB (two-step dilution method: firstly diluting 10 times, then diluting 40 times).
(§6) The number of inoculated bacteria can be obtained by counting the colonies on the petri dish (see Section 2.4).
(§7) One compound was arranged in each row of a 96-well test plate: the highest test concentration for each compound was 64 μg/mL, which was diluted by a factor of two.
(§8) Growth control (GC): 1.02×CAMHB and dimethyl sulfoxide (DMSO) containing bacterial inoculum, no compound.
(§9) Sterile control (SC): Containing 1.02×CAMHB and DMSO, no compound.
(§10) All test compounds were dissolved and diluted with DMSO. 50 μL of 3.2 mg/mL of each test compound was transferred to the initial well (A1-H1) of the dilution plate, and then 25 μL of DMSO was transferred to other wells. The test compounds were sequentially diluted by a factor of 2 from column 1 to column 11 (i.e. drawing 25 μL of test compound from column 1 to column 2 and mixing well, and then drawing 25 μL of test compound from column 2 to column 3 and mixing well, and then drawing 25 μL of test compound from column 3 to column 4 and mixing well, and so on, until diluting to column 11).
(§11) 2 μL of the compound was transferred from the compound plate to the corresponding well of the test plate. Meanwhile, 2 μL of 100% DMSO was transferred to the compound-free wells (the GC and SC wells).
(§12) 98 μL of the corresponding bacterial inoculum was added to the test plate (except for the SC well).
(§13) 98 μL of 1.02×CAMHB medium was added to the SC well of the test plate.
(§14) After the system was added, the test plate was covered with a sterile lid, centrifuged at 800 rpm for 30 seconds, then shaken on a plate shaker at 400 rpm for 1 minute for mixing well, and then placed in an incubator at 35±2° C. for 20 hours.
(§15) The inoculated bacteria were gradient diluted by 10 folds with the liquid medium, from 10^−1 to 10^−3. 100 μL of the above bacterial dilution was spread evenly on a TSA petri dish, 2 replicates for each dilution. After the medium was absorbed by TSA for 10 minutes, the petri dishes were reversed and incubated in an incubator at 35±2° C. for 24 hours.
(§16) A compound management system was turned on to check whether the barcode and compound arrangement of each test plate were correct. […]

[2] = system: Escherichia coli; assay: as above; assay type: cell-based
Method: as §1, §2, §3, §4, §5, §6, §7, §8, §9, §10, §11, §12, §13, §14, §15, §16

[3] = system: Pseudomonas aeruginosa; assay: as above; assay type: cell-based
Method: as §1, §2, §3, §4, §5, §6, §7, §8, §9, §10, §11, §12, §13, §14, §15, §16

[4] = system: Acinetobacter baumannii, Pseudomonas aeruginosa, and Escherichia coli; assay: In vitro antibacterial activity, summary statements over all strains of Experimental Example 1; assay type: cell-based; conditions: method of Experimental Example 1
Method: as §1, §2
The minimum inhibitory concentration (MIC) of each compound was recorded according to the guidelines of the Clinical and Laboratory Standards Institute.

[5] = Pharmacokinetics of the compounds in mice; assay type: in vivo, BALB/c mice; conditions: mouse, plasma, male BALB/c mice, single intravenous dose 2 mg/kg, plasma; for Vd: male, BALB/c, iv, 2 mg/kg
Description: Animals: male BALB/c mice, SPF grade, purchased from Changzhou Cavens Experimental Animal Co., Ltd.; 16-24 g, license number: SCXK (Su)2016-0010; 2 to 3 days of adaptation period were given before the experiment.
Instruments: API 4500 High Performance Liquid Chromatograph Coupled Triple Quadrupole Mass Spectrometer, and Analyst QS A01.01 Chromatography Workstation were both purchased from AB SCIEX of the United States; Milli-Q ultrapure water device was purchased from Millipore; CF16R XII desktop high-speed refrigerated centrifuge was purchased From Hitachi Company; Qilinbeier Vortex-5 oscillator was purchased from IKA Company of German; electric heating constant-temperature water bath was purchased from Changzhou Guohua Electric Appliance Co., Ltd.; electric pipette was purchased from Thermo Company of American; and microanalysis balance was purchased from Shanghai Mettler Co., Ltd.
2 mg of the test compound was weighed, added to physiological saline, vortexed for 2 min, and ultrasonicated for 3 min, to prepare a test solution with a concentration of 0.2 mg/mL for intravenous administration.
A single dose of 2 mg/kg of the test compound was administered to BALB/c mice via the tail vein, the dose volume being 0.1 mL/10 g. At 5 min, 15 min, 30 min, 1 h, 2 h, 4 h after administration, blood samples were collected from the orbital venous plexus into heparinized EP tubes (0.6 mL), which were temporarily placed on crushed ice.
The samples were centrifuged at 8000 rpm for 5 min. 15 μL of upper plasma were transferred to a 96-well plate. 150 μL of methanol:acetonitrile (v/v=1:1) (containing 20 ng/mL tolbutamide) was added to 15 μL of plasma, shaken for 3 min, and centrifuged at 4500 rpm for 5 min. 100 μL of supernatant was taken to a 2 mL deep well plate. 100 μL of diluent (pure water) was added. The samples were shaken for 3 min, and centrifuged at 4500 rpm for 5 min. 180 μL of the supernatant was transferred to the sample plate. The content of the compound in the supernatant sample was analyzed by LC-MS/MS, and various pharmacokinetic parameters were calculated with WinNonlin software.

Compound | MIC ([1]; strain HDBAB-YK4) [mg/L] | MIC ([1]; strain HDBAB-YK7) [mg/L] | MIC ([1]; strain HDBAB-YK12) [mg/L] | MIC ([1]; strain HDBAB-YK16) [mg/L] | MIC ([1]; strain HDBAB_OXA_7) [mg/L] | MIC ([2]; strain CLB30048, read-out: MIC) [mg/L] | MIC ([3]; strain HDBPA-YK9) [mg/L] | MIC ([3]; strain HDBPA-YK15) [mg/L] | in vitro antibacterial activity (in words) [4] | MIC ([1]; ATCC19606, strain ATCC 19606) [mg/L] | MIC [2] [mg/L] | Vd ([5]; read-out: VSS) [L/kg] | Vd ([5]; read-out: Vd) [L/kg] | AUC(0-inf) [5] [µg·h/mL] | AUC(0-t) [5] [µg·h/mL] | C0 [5] [µg/mL] | clearance [5] [L/h/kg] | half-life [5] [min]
CC1[C@@H](NC(=O)/C(=N\OC2(C(=O)O)CC2)c2csc(N)n2)[C@@H](CN2CCOC2=O)N1S(=O)(=O)O (some centres unmarked) [Compound B, reference compound] | > 64 | > 64 | > 64 | > 64 | > 64 | > 64 | > 64 | > 64 | significantly weaker | – | – | – | – | – | – | – | – | –
CC1(C)[C@H](NC(=O)/C(=N\O[C@@H](COc2ccc(NC(=O)c3cn(CCCN)[n+](CC4CNC4)c3)cc2)C(=O)O)c2csc(N)n2)C(=O)N1OS(=O)(=O)[O-] [Example 2, (S)-3-((Z)-2-(((S)-2-(4-(1-(3-aminopropyl)-2-(azetidin-3-ylmethyl)-1H-pyrazol-2-ium-4-carboxamido)phenoxy)-1-carboxyethoxy)imino)-2-(2-aminothiazol-4-yl)acetylamido)-2,2-dimethyl-4-oxoazetidin-1-yl Sulfate] | 2 | 0.625 | 2 | 8 | 4 | – | 4 | > 64 | excellent antibacterial activity | 2 | 1 | – | – | – | – | – | – | –
C[n+]1cc(-c2ccc(OC[C@H](O/N=C(\C(=O)N[C@@H]3C(=O)N(OS(=O)(=O)[O-])C3(C)C)c3csc(N)n3)C(=O)O)cc2)ccc1NC(=O)[C@@H](N)CCCCN [Example 4, (S)-3-((Z)-2-(2-aminothiazol-4-yl)-2-(((S)-1-carboxy-2-(4-(6-((S)-2,6-diaminohexanamido)-1-methylpyridin-1-ium-3-yl)phenoxy)ethoxy)imino)acetylamino)-2,2-dimethyl-4-oxoazetidin-1-yl Sulfate] | 2 | 2 | 4 | 32 | 16 | 8 | 16 | > 64 | – | 2 | – | 0.73 | 0.88 | 0.813 | 0.751 | 3.01 | 2.57 | 13.8
CC1(C)[C@H](NC(=O)/C(=N\O[C@@H](COc2ccc(-c3ccc(NC(=O)[C@@H](N)CCCCN)nc3)cc2)C(=O)O)c2csc(N)n2)C(=O)N1OS(=O)(=O)O [Example 5, (S)-2-((((Z)-1-(2-aminothiazol-4-yl)-2-(((S)-2,2-dimethyl-4-oxo-1-(sulfonyloxy)azetidin-3-yl)amino)-2-oxoethylene)amino)oxy)-3-(4-(6-((S)-2,6-diaminohexanamido)pyridin-3-yl)phenoxy)propionic Acid] | 32 (≈ 41.9 µM) | > 64 | 4 (≈ 5.24 µM) | 64 (≈ 83.8 µM) | 16 (≈ 20.9 µM) | 8 (≈ 10.5 µM) | 32 (≈ 41.9 µM) | > 64 | – | 8 (≈ 10.5 µM) | – | – | – | – | – | – | – | –
C[n+]1cc(-c2ccc(OC[C@H](O/N=C(\C(=O)N[C@@H]3C(=O)N(OS(=O)(=O)[O-])C3(C)C)c3csc(N)n3)C(=O)O)cc2)ccc1NC(=O)[C@@H](N)CO [Example 6] | 32 (≈ 43.4 µM) | 64 (≈ 86.9 µM) | 4 (≈ 5.43 µM) | > 64 | 32 (≈ 43.4 µM) | 32 (≈ 43.4 µM) | 64 (≈ 86.9 µM) | > 64 | – | 64 (≈ 86.9 µM) | – | – | – | – | – | – | – | –
CC1(C)[C@H](NC(=O)/C(=N\O[C@@H](COc2ccc(-c3ccc(NC(=O)[C@@H](N)CO)nc3)cc2)C(=O)O)c2csc(N)n2)C(=O)N1OS(=O)(=O)O [Example 7] | > 64 | > 64 | 16 (≈ 22.1 µM) | > 64 | > 64 | 64 (≈ 88.6 µM) | 32 (≈ 44.3 µM) | > 64 | – | 64 (≈ 88.6 µM) | – | – | – | – | – | – | – | –
C[n+]1cc(-c2ccc(OC[C@H](O/N=C(\C(=O)N[C@@H]3C(=O)N(OS(=O)(=O)[O-])C3(C)C)c3csc(N)n3)C(=O)O)cc2)ccc1NC(=O)[C@H](N)CCCCN [Example 8] | 4 (≈ 5.14 µM) | 1 (≈ 1.29 µM) | 2 (≈ 2.57 µM) | 16 (≈ 20.6 µM) | 8 (≈ 10.3 µM) | 8 (≈ 10.3 µM) | 16 (≈ 20.6 µM) | > 64 | – | 2 (≈ 2.57 µM) | – | – | – | – | – | – | – | –
CC1(C)[C@H](NC(=O)/C(=N\O[C@@H](CCCOc2ccc(-c3cn(CCCN)[n+](CC4CNC4)c3)cc2)C(=O)O)c2csc(N)n2)C(=O)N1OS(=O)(=O)[O-] [Example 10, (S)-3-((Z)-2-(((S)-4-(4-(1-(3-aminopropyl)-2-(azetidin-3-ylmethyl)-1H-pyrazol-2-ium-4-yl)phenoxy)-1-carboxybutoxy)imino)-2-(2-aminothiazol-4-yl)acetylamino)-2,2-dimethyl-4-oxoazetidin-1-yl Sulfate] | 8 | 0.5 | 8 | 16 | 8 | 1 | 8 | 32 | – | 4 | – | – | – | – | – | – | – | –
CC1(C)[C@H](NC(=O)/C(=N\O[C@@H](COc2ccc(-c3ccc4[nH]c(CN)nc4c3)cc2)C(=O)O)c2csc(N)n2)C(=O)N1OS(=O)(=O)O [Example 11, (S)-3-(4-(2-(aminomethyl)-1H-benzo[d]imidazol-5-yl)phenoxy)-2-((((Z)-1-(2-aminothiazol-4-yl)-2-(((S)-2,2-dimethyl-4-oxo-1-(sulfonyloxy)azetidin-3-yl)amino)-2-oxoethylene)amino)oxy)propionic Acid] | > 64 | > 64 | 16 (≈ 23.2 µM) | > 64 | > 64 | 32 (≈ 46.5 µM) | 32 (≈ 46.5 µM) | > 64 | – | > 64 | – | – | – | – | – | – | – | –
